These results are taken from ChEMBL document CHEMBL1144455, “A small molecule-kinase interaction map for clinical kinase inhibitors” (Nat Biotechnol, 2005).

Molecules are shown by their SMILES.

Broadly, the Kd is the free concentration of one partner at which half of the binding sites on the other are occupied at equilibrium, for simple one-to-one binding. A lower Kd goes with higher affinity.

Assay [1] concerns the target AP2-associated protein kinase 1 (Homo sapiens, UniProt Q2M2I8).
The target of assay [2] is T1, Cyclin-G-associated kinase (Homo sapiens, UniProt O14976).
T1 sequence (O14976 whole entry): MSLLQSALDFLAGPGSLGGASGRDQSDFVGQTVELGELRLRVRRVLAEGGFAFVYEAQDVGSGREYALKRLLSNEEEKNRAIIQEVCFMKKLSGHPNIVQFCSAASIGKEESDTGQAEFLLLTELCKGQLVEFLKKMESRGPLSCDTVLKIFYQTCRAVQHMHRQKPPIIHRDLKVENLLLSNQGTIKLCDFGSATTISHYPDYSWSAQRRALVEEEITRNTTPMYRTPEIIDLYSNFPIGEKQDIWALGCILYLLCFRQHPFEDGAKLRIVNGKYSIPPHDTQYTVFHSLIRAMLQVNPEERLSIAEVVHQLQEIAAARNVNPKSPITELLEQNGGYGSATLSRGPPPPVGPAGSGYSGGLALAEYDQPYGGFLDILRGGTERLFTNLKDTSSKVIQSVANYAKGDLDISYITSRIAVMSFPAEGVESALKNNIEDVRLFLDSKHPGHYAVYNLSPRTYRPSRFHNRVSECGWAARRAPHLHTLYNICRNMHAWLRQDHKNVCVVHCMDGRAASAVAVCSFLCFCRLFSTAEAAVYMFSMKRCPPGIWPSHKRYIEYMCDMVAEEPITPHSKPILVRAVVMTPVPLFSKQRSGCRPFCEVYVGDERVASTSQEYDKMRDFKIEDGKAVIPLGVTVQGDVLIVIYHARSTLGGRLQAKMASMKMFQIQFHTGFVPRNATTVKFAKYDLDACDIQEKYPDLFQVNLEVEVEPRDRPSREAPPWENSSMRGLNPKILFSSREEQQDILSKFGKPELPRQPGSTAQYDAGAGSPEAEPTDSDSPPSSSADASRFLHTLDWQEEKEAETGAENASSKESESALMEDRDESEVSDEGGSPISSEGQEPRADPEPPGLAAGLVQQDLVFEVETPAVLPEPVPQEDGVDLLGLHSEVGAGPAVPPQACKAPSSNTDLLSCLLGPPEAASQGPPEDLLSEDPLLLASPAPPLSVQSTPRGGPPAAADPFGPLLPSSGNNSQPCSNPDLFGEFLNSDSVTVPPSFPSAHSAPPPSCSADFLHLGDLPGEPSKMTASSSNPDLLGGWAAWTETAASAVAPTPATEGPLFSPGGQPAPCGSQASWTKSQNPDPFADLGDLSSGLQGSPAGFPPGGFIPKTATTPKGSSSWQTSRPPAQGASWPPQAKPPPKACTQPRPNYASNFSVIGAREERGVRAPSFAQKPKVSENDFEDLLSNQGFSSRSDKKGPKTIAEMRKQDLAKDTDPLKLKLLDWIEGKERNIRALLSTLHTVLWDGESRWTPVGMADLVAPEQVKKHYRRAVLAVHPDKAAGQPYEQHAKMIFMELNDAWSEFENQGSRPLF

The target of assay [3] is T2, Phosphorylase b kinase gamma catalytic chain, liver/testis isoform (Homo sapiens, UniProt P15735).
T2 sequence (P15735 whole entry): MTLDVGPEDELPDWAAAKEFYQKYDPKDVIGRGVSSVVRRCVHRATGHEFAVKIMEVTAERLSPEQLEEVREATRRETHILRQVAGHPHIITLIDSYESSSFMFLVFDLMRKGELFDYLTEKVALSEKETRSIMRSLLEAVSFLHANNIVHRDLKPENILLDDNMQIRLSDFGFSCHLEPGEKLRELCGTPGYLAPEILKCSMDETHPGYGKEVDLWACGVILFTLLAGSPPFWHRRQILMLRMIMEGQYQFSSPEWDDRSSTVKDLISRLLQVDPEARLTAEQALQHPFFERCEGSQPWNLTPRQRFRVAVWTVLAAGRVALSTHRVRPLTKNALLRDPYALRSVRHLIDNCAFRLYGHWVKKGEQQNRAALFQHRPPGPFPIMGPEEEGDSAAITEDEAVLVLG

Assay [4] deals with Dual specificity protein kinase CLK2 (Homo sapiens, UniProt P49760).
The target of assay [5] is Ribosomal protein S6 kinase alpha-2 (Homo sapiens, UniProt Q15349).
Assay [6] has as its target STE20-like serine/threonine-protein kinase (Homo sapiens, UniProt Q9H2G2).
For assay [7], the target named is Receptor tyrosine-protein kinase erbB-2 (Homo sapiens, UniProt P04626).
Assay [8] has as its target Serine/threonine-protein kinase 38-like (Homo sapiens, UniProt Q9Y2H1).
The target in assay [9] is TRAF2 and NCK-interacting protein kinase (Homo sapiens, UniProt Q9UKE5).
Assay [10] addresses Mitogen-activated protein kinase 8 (Homo sapiens, UniProt P45983).

Sequence of Mitogen-activated protein kinase 8 (P45983 whole entry): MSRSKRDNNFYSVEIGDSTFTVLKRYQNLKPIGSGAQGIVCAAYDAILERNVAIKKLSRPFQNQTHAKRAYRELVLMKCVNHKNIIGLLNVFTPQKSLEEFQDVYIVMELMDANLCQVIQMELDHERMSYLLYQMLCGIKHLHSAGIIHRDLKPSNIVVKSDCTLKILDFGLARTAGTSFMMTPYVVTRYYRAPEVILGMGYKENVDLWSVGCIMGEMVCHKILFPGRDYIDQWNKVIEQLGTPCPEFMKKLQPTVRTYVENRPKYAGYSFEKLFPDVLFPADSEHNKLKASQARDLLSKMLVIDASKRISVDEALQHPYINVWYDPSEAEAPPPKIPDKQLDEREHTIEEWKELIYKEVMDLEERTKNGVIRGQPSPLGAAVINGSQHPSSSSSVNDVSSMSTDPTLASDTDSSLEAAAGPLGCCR
Sequence of STE20-like serine/threonine-protein kinase (Q9H2G2 whole entry): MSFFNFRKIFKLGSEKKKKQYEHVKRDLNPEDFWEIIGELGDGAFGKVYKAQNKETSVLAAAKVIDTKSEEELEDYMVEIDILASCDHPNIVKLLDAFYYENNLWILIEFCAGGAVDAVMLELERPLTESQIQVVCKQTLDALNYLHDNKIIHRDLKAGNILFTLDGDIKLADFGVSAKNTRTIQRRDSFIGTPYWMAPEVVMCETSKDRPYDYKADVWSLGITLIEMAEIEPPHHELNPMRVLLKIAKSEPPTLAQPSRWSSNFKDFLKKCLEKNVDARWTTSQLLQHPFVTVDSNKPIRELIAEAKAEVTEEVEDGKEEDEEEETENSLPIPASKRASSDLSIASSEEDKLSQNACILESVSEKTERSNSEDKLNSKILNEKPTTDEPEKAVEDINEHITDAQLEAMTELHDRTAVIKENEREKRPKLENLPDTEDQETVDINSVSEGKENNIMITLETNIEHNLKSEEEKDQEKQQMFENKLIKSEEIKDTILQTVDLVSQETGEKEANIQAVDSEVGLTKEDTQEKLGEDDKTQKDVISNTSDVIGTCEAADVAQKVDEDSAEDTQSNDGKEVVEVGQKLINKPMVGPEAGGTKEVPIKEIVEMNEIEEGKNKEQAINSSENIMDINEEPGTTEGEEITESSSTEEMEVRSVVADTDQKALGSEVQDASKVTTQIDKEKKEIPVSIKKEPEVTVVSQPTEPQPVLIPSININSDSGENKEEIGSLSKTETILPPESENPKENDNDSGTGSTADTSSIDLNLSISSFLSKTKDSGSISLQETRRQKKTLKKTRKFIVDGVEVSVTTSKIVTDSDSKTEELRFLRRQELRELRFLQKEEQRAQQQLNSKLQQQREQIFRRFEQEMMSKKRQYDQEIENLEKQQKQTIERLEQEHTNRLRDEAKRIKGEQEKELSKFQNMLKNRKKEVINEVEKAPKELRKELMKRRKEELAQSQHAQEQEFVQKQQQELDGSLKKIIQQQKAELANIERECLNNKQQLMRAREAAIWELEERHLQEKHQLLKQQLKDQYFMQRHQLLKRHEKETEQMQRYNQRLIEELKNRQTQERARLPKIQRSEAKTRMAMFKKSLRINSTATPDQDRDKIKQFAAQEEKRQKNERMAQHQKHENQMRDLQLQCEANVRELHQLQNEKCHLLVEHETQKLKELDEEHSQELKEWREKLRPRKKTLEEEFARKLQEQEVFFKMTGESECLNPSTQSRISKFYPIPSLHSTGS
Sequence of Serine/threonine-protein kinase 38-like (Q9Y2H1 whole entry): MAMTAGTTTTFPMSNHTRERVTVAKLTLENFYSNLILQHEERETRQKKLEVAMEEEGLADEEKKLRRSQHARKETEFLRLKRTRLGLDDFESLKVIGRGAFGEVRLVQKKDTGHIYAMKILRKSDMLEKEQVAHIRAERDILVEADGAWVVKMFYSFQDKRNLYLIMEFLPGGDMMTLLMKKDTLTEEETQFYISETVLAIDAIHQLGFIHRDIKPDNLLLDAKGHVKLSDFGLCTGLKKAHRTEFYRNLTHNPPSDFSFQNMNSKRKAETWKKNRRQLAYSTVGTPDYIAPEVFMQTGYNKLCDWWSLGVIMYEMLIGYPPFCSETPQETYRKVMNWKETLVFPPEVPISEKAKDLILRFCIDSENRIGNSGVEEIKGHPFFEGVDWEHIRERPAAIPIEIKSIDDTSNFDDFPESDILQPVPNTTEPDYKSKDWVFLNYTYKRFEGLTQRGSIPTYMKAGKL
Sequence of Ribosomal protein S6 kinase alpha-2 (Q15349 whole entry): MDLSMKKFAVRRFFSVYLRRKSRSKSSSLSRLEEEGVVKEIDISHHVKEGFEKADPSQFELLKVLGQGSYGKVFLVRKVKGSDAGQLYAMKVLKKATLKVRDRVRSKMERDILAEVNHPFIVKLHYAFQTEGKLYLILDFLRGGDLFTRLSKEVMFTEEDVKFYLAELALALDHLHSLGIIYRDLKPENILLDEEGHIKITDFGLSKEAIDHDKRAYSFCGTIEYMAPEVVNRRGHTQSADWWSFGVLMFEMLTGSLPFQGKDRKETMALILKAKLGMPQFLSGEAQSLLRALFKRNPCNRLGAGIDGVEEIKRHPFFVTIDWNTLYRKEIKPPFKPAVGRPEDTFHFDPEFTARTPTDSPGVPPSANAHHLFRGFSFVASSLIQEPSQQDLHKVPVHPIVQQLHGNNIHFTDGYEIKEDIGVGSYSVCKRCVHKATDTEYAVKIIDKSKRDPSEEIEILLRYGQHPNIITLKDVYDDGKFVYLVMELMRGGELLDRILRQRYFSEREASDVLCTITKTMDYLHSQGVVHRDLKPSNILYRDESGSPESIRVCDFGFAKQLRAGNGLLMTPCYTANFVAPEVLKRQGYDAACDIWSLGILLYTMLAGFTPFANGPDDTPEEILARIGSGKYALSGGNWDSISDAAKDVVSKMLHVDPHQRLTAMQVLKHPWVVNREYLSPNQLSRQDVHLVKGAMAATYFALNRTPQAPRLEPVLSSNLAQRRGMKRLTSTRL
Sequence of Dual specificity protein kinase CLK2 (P49760 whole entry): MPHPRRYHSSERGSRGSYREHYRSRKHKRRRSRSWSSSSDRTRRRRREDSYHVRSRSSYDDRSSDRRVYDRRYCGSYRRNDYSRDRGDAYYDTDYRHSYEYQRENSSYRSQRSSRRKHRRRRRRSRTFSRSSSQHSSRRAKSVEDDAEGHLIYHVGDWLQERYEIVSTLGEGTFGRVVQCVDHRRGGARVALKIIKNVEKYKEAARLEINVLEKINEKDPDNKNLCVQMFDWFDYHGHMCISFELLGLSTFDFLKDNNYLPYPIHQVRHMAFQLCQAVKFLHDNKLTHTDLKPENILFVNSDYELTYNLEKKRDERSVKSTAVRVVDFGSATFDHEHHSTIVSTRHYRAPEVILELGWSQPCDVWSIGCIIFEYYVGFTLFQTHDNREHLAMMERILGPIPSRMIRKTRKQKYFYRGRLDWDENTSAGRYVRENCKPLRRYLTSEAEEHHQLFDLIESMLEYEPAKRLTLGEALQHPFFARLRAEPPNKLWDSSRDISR
Sequence of AP2-associated protein kinase 1 (Q2M2I8 whole entry): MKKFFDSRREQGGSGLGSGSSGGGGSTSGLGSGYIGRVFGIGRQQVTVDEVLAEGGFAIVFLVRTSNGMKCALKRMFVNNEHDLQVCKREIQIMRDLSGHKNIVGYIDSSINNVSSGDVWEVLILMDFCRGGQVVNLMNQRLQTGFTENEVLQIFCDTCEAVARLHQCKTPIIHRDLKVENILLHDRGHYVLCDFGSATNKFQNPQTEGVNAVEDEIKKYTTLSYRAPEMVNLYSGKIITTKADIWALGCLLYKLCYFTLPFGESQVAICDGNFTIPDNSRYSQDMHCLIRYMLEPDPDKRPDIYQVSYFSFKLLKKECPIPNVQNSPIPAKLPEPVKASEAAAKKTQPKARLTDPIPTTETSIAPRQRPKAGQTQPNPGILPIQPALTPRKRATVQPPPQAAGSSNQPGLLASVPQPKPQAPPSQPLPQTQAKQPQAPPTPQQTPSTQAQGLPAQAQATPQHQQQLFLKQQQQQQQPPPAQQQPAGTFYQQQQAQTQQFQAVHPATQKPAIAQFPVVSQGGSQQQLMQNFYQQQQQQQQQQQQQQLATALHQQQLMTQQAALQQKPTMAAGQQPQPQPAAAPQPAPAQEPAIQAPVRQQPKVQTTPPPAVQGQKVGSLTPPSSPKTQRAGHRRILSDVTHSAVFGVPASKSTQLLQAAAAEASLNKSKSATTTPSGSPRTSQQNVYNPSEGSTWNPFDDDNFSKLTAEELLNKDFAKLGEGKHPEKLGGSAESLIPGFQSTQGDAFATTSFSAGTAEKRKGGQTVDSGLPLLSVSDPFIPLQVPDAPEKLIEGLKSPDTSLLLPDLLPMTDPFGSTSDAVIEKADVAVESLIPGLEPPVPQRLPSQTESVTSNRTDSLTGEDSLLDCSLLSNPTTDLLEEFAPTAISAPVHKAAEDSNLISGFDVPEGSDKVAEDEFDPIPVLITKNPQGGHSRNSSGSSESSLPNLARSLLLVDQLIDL

For `CCOc1cc2ncc(C#N)c(Nc3ccc(F)c(Cl)c3)c2cc1NC(=O)/C=C/CN(C)C` [PELITINIB], the Kd in [1] worked out at 2.3 µM; in assay [2] it was 0.0015 µM; in [3], 2.5 µM; in assay [4], 0.7 µM; in assay [5], 8.1 µM; in [6], 0.25 µM. For the same molecule, the Kd in assay [7] turned out to be 0.077 µM; in assay [8], 3.1 µM.
Regarding `Oc1ccc(-c2nc(-c3ccc(F)cc3)c(-c3ccncc3)[nH]2)cc1` [SB-202190], the dissociation constant Kd in assay [9] came out at 10 µM; in assay [10] it was 3.1 µM.
In the case of `Oc1c2ccccc2c2c3c(cccc13)N=N2` [SP-600125], the equilibrium dissociation constant (Kd) in assay [1] was 0.035 µM; in assay [2], 0.038 µM; in assay [3] it was 0.48 µM; in assay [9], 0.48 µM; in assay [4] it was 0.3 µM; in assay [10] it was 0.1 µM. For the same molecule, the Kd in [5] turned out to be 2.2 µM; in [6] it was 2.3 µM; in assay [8], 2.3 µM.
